Assays:
A-431 [1] = assay: Tested for antiproliferative activity against human A431 cells; type: functional, cell-based
A-431 [2] = assay: Inhibitory effect on phospho-Src (Tyr416) after EGF (100 uM) stimulation of A431 cells (38); details: Homo sapiens
A-431 [3] = assay: Inhibitory effect on phospho-Src/nonphospho after EGF (100 uM) stimulation of A431 cells (21); details: Homo sapiens
A-431 [4] = assay: cells; details: Homo sapiens
Description: Inhibitory effect on nonphospho-Src after EGF (100 uM) stimulation of A431 cells (control=178)

IC50 (A-431 [1]) [µM] | Compound | also measured
40 | CSc1nc(NCc2ccccc2)c2cnn(/C=C/c3ccccc3)c2n1 | –
69 | C(=C\n1ncc2c(N3CCCCC3)ncnc21)/c1ccccc1 | –
54 | CSc1nc(N2CCCCC2)c2cnn(/C=C/c3ccccc3)c2n1 | –
59 | C(=C\n1ncc2c(N3CCOCC3)ncnc21)/c1ccccc1 | –
36 | CSc1nc(N2CCOCC2)c2cnn(/C=C/c3ccccc3)c2n1 | –
91 | CCCCNc1ncnc2c1cnn2/C=C/c1ccccc1 | –
– | CC(C)(C)n1nc(-c2ccc(Cl)cc2)c2c(N)ncnc21 | IC50 (A-431 [2]): 22 µM; IC50 (A-431 [3]): 17 µM; IC50 (A-431 [4]): 131 µM
– | CSc1nc(NCc2ccccc2)c2cnn(CC(Cl)c3ccccc3)c2n1 (configuration not stated) | IC50 (A-431 [2]): 32 µM; IC50 (A-431 [3]): 21 µM
– | CSc1nc(N2CCOCC2)c2cnn(CC(Cl)c3ccccc3)c2n1 (configuration not stated) | IC50 (A-431 [2]): 34 µM; IC50 (A-431 [3]): 24 µM
27 | CCCCNc1nc(SC)nc2c1cnn2CC(Cl)c1ccccc1 (configuration not stated) | –
20 | COc1cc2ncnc(Nc3cccc(Cl)c3)c2cc1OC [TYRPHOSTIN AG-1478] | –
63 | C(=C\n1ncc2c(N3CCCC3)ncnc21)/c1ccccc1 | –
61 | CCCNc1ncnc2c1cnn2/C=C/c1ccccc1 | –
– | CCCCNc1nc(SCC)nc2c1cnn2CC(Cl)c1ccccc1 (configuration not stated) | IC50 (A-431 [2]): 53 µM; IC50 (A-431 [3]): 33 µM
50 | CCSc1nc(N2CCOCC2)c2cnn(/C=C/c3ccccc3)c2n1 | –
176 | CCSc1nc(N2CCCCC2)c2cnn(CC(Cl)c3ccccc3)c2n1 (configuration not stated) | –
124 | CCSc1nc(NCc2ccccc2)c2cnn(CC(Cl)c3ccccc3)c2n1 (configuration not stated) | –
